# Test system: panel of 55 breast cancer cell lines
# Assay: Cell growth inhibition assay (Cell Titer Glo, 72 h, 9 doses; GI50, TGI, LC50)
# Assay type: cell-based, human
structure (smiles),measurement,setting,value
Oc1cc(-c2nc(-c3ccccc3)[nH]c2-c2ccncc2)ccc1Cl [L-779450],GI50,"BT474 cell line, censored GI50 values, value is the negative log10 of mol/L",4.73
same,GI50,"BT483 cell line, censored GI50 values, value is the negative log10 of mol/L",4.84
same,GI50,"HCC38 cell line, censored GI50 values, value is the negative log10 of mol/L",4.77
same,GI50,"HCC1187 cell line, censored GI50 values, value is the negative log10 of mol/L",5.07
same,GI50,"HCC1395 cell line, censored GI50 values, value is the negative log10 of mol/L",4.54
same,GI50,"HCC1419 cell line, censored GI50 values, value is the negative log10 of mol/L",4.78
same,GI50,"HCC1428 cell line, censored GI50 values, value is the negative log10 of mol/L",4.80
same,GI50,"HCC1937 cell line, censored GI50 values, value is the negative log10 of mol/L",4.84
same,GI50,"MDAMB134VI cell line, censored GI50 values, value is the negative log10 of mol/L",4.60
same,GI50,"MDAMB175VII cell line, censored GI50 values, value is the negative log10 of mol/L",5.05
same,GI50,"MDAMB361 cell line, censored GI50 values, value is the negative log10 of mol/L",5.04
same,GI50,"MDAMB436 cell line, censored GI50 values, value is the negative log10 of mol/L",5.66
same,GI50,"MDAMB468 cell line, censored GI50 values, value is the negative log10 of mol/L",4.90
same,GI50,"SKBR3 cell line, censored GI50 values, value is the negative log10 of mol/L",4.66
same,GI50,"SUM52PE cell line, censored GI50 values, value is the negative log10 of mol/L",5.13
same,GI50,"SUM149PT cell line, censored GI50 values, value is the negative log10 of mol/L",5.13
same,GI50,"SUM159PT cell line, censored GI50 values, value is the negative log10 of mol/L",4.70
same,GI50,"UACC812 cell line, censored GI50 values, value is the negative log10 of mol/L",4.97
same,GI50,"ZR75B cell line, censored GI50 values, value is the negative log10 of mol/L",4.51
same,GI50,"cell line AU565, value is the negative log10 of mol/L",4.48
same,GI50,"cell line BT20, value is the negative log10 of mol/L",4.44
same,GI50,"cell line BT474, value is the negative log10 of mol/L",4.73
same,GI50,"cell line BT483, value is the negative log10 of mol/L",4.84
same,GI50,"cell line CAMA1, value is the negative log10 of mol/L",4.44
same,GI50,"cell line HCC38, value is the negative log10 of mol/L",4.77
same,GI50,"cell line HCC70, value is the negative log10 of mol/L",4.50
same,GI50,"cell line HCC1143, value is the negative log10 of mol/L",4.39
same,GI50,"cell line HCC1187, value is the negative log10 of mol/L",5.07
same,GI50,"cell line HCC1395, value is the negative log10 of mol/L",4.54
same,GI50,"cell line HCC1419, value is the negative log10 of mol/L",4.78
same,GI50,"cell line HCC1428, value is the negative log10 of mol/L",4.80
same,GI50,"cell line HCC1500, value is the negative log10 of mol/L",4.48
same,GI50,"cell line HCC1937, value is the negative log10 of mol/L",4.84
same,GI50,"cell line HCC1954, value is the negative log10 of mol/L",4.48
same,GI50,"cell line HCC2185, value is the negative log10 of mol/L",4.42
same,GI50,"cell line HCC3153, value is the negative log10 of mol/L",4.48
same,GI50,"cell line MCF7, value is the negative log10 of mol/L",4.48
same,GI50,"cell line MDAMB134V, value is the negative log10 of mol/L",4.60
same,GI50,"cell line MDAMB175V, value is the negative log10 of mol/L",5.05
same,GI50,"cell line MDAMB231, value is the negative log10 of mol/L",4.49
same,GI50,"cell line MDAMB361, value is the negative log10 of mol/L",5.04
same,GI50,"cell line MDAMB436, value is the negative log10 of mol/L",5.66
same,GI50,"cell line MDAMB453, value is the negative log10 of mol/L",4.48
same,GI50,"cell line MDAMB468, value is the negative log10 of mol/L",4.90
same,GI50,"cell line SKBR3, value is the negative log10 of mol/L",4.66
same,GI50,"cell line SUM52PE, value is the negative log10 of mol/L",5.13
same,GI50,"cell line SUM149PT, value is the negative log10 of mol/L",5.13
same,GI50,"cell line SUM159PT, value is the negative log10 of mol/L",4.70
same,GI50,"cell line SUM1315MO, value is the negative log10 of mol/L",4.62
same,GI50,"cell line T47D, value is the negative log10 of mol/L",4.48
same,GI50,"cell line UACC812, value is the negative log10 of mol/L",4.97
same,GI50,"cell line ZR75B, value is the negative log10 of mol/L",4.51
same,GI50,"cell line ZR751, value is the negative log10 of mol/L",4.53
C[C@]12O[C@H](C[C@]1(O)CO)n1c3ccccc3c3c4c(c5c6ccccc6n2c5c31)CNC4=O [Lestaurtinib],GI50,"Homo sapiens, 600MPE cell line, censored GI50 values",1700 nM
same,GI50,"Homo sapiens, AU565, AU565 cell line, censored GI50 values",851 nM
same,GI50,"Homo sapiens, AU565, cell line AU565",851 nM
same,GI50,"Homo sapiens, BT-20, BT20 cell line, censored GI50 values",3240 nM
same,GI50,"Homo sapiens, BT-20, cell line BT20",3240 nM
same,GI50,"Homo sapiens, BT-474, BT474 cell line, censored GI50 values",245 nM
same,GI50,"Homo sapiens, BT-474, cell line BT474",245 nM
same,GI50,"Homo sapiens, BT-483, BT483 cell line, censored GI50 values",741 nM
same,GI50,"Homo sapiens, BT-483, cell line BT483",741 nM
same,GI50,"Homo sapiens, CAMA-1, CAMA1 cell line, censored GI50 values",2240 nM
same,GI50,"Homo sapiens, CAMA-1, cell line CAMA1",2240 nM
same,GI50,"Homo sapiens, HCC38, cell line HCC38",61.7 nM
same,GI50,"Homo sapiens, HCC70, cell line HCC70",182 nM
same,GI50,"Homo sapiens, HCC1143, HCC1143 cell line, censored GI50 values",331 nM
same,GI50,"Homo sapiens, HCC1143, cell line HCC1143",331 nM
same,GI50,"Homo sapiens, HCC1187, HCC1187 cell line, censored GI50 values",832 nM
same,GI50,"Homo sapiens, HCC1187, cell line HCC1187",832 nM
same,GI50,"Homo sapiens, HCC1419, HCC1419 cell line, censored GI50 values",1150 nM
same,GI50,"Homo sapiens, HCC1419, cell line HCC1419",1150 nM
same,GI50,"Homo sapiens, HCC1428, HCC1428 cell line, censored GI50 values",537 nM
same,GI50,"Homo sapiens, HCC1428, cell line HCC1428",537 nM
same,GI50,"Homo sapiens, HCC1500, HCC1500 cell line, censored GI50 values",158 nM
same,GI50,"Homo sapiens, HCC1500, cell line HCC1500",158 nM
same,GI50,"Homo sapiens, HCC1806, HCC1806 cell line, censored GI50 values",162 nM
same,GI50,"Homo sapiens, HCC1806, cell line HCC1806",162 nM
same,GI50,"Homo sapiens, HCC1937, HCC1937 cell line, censored GI50 values",617 nM
same,GI50,"Homo sapiens, HCC1937, cell line HCC1937",617 nM
same,GI50,"Homo sapiens, HCC1954, HCC1954 cell line, censored GI50 values",4900 nM
same,GI50,"Homo sapiens, HCC1954, cell line HCC1954",4900 nM
same,GI50,"Homo sapiens, MCF7, cell line MCF7",1410 nM
same,GI50,"Homo sapiens, MDA-MB-361, cell line MDAMB361",525 nM
same,GI50,"Homo sapiens, MDA-MB-436, cell line MDAMB436",1380 nM
same,GI50,"Homo sapiens, MDA-MB-453, cell line MDAMB453",661 nM
same,GI50,"Homo sapiens, MDA-MB-468, cell line MDAMB468",407 nM
same,GI50,"Homo sapiens, SK-BR-3, cell line SKBR3",1020 nM
same,GI50,"Homo sapiens, SUM52PE, cell line SUM52PE",138 nM
same,GI50,"Homo sapiens, SUM149PT, cell line SUM149PT",91.2 nM
same,GI50,"Homo sapiens, SUM185PE, cell line SUM185PE",63.1 nM
same,GI50,"Homo sapiens, SUM225CWN, cell line SUM225CWN",1000 nM
same,GI50,"Homo sapiens, SUM-159-PT, cell line SUM159PT",288 nM
same,GI50,"Homo sapiens, T47D, cell line T47D",5620 nM
same,GI50,"Homo sapiens, UACC-812, cell line UACC812",1050 nM
same,GI50,"Homo sapiens, ZR-75-1, cell line ZR751",1780 nM
same,GI50,"Homo sapiens, ZR-75B, cell line ZR75B",457 nM
same,GI50,"Homo sapiens, cell line 600MPE",1700 nM
same,GI50,"Homo sapiens, cell line HCC2185",3240 nM
same,GI50,"Homo sapiens, cell line HCC3153",7760 nM
same,GI50,"Homo sapiens, cell line MDAMB134V",363 nM
same,GI50,"Homo sapiens, cell line MDAMB175V",813 nM
same,GI50,"Homo sapiens, cell line SUM1315MO",37.2 nM
